Experimental data reported in article PMC9096233, “Identification of an Au(I) N-Heterocyclic Carbene Compound as a Bactericidal Agent Against Pseudomonas aeruginosa” (Frontiers in Chemistry, 2022).

How the values were obtained:
pyocyanin = assay: Quantification of secreted pyocyanin; format: cell-based, Pseudomonas aeruginosa; conditions: 15 μM; 24 h
Experimental: (§1) To quantify the secreted virulence factors, overnight P. aeruginosa PAO1 was diluted in fresh M9 medium and cultured to a final OD600 value of 0.15. Then Au1 or auranofin were added into culture with indicated concentrations. After 24 h incubation at 37°C, the bacterial supernatants were collected by centrifugation at 4,000 g for 10 min at 4°C and filtered using a 0.22 μm syringe filter (Millipore). The secreted virulence factors in the supernatant were quantified by the methods described below.
The bacterial secreted pyocyanin was quantified as described previously ([Essar et al., 1990]). Approximately 10 ml bacterial supernatant medium was collected by centrifugation. Subsequently, 3 ml chloroform was added into medium to extract the pyocyanin. The pyocyanin was re-extracted into 1 ml of 0.2 M HCl to give a pink to deep red solution after approximately 30 min. The pyocyanin concentration was determined by measurement the absorbance at 520 nm.

LasA protease = LasA protease detection (azocasein); format: cell-based, Pseudomonas aeruginosa; conditions: 15 μM; 24 h
Experimental: as §1
For LasA protease detection, 5 μL of filtered supernatant was mixed with 1 ml of 0.5% azocasein (Sigma-Aldrich) in reaction buffer (50 mM Tris-HCl, 0.5 mM CaCl2, pH 7.5). The mixture was incubated at 37°C for 15 min. After reaction, 500 μL of 10% trichloroacetic (TCI Shanghai) acid was added and incubated for 30 min at room temperature. After centrifugation at 10,000 g for 20 min, the 440 nm absorbance of the collected supernatant was measured to quantify the secreted LasA protease.

LasB elastase = assay: LasB elastase, Elastin-Congo red assay; format: cell-based, Pseudomonas aeruginosa; conditions: 15 μM; 24 h
Experimental: as §1
The LasB elastase was examined by Elastin-Congo red assay ([Morihara et al., 1965]). In brief, 700 μL of bacterial supernatant was incubated with 700 μL of 10 mg/ml Elastin-Congo (Sigma-Aldrich) red elastase substrate in reaction buffer (100 mM Tris-HCl, 1 mM CaCl2, pH 7.5) at 37°C for 3 h with shaking. Then 0.2 ml EDTA was added to a final concentration of 10 mM to stop the cleavage reaction. Insoluble pellets were removed by centrifugation and the absorbance of the supernatant at 495 nm was measured.

rhamnolipid = assay: Rhamnolipid measurement (anthrone); format: cell-based, Pseudomonas aeruginosa; conditions: 15 μM
Experimental: as §1
For rhamnolipid measurement, rhamnolipid was extracted from the supernatant with a mixture of chloroform and methanol (v:v = 2:1). The organic solvent phase was then evaporated to dryness and 100 μL methanol was added to dissolve the extracted rhamnolipid. Then 200 μL of pre-cooled anthrone solution (dissolving 2 g of anthrone in 1 L of concentrated H2SO4) was added into 20 μL extracted rhamnolipid sample and heat at 80°C for 30min. The rhamnolipid concentration was determined by measurement the absorbance at 630 nm.

P. aeruginosa biofilm = assay: Biofilm inhibition, crystal violet; format: cell-based, Pseudomonas aeruginosa; conditions: 48 h static incubation
Experimental: P. aeruginosa was cultured in 24-well microtiter plate (Corning, NY, United States) for static biofilm formation. For biofilm inhibition assay, approximately 1 ml of bacterial overnight culture were diluted in fresh M9 medium with a final OD600 value of 0.33 and transferred into each well of microtiter plate in the absence or presence of sub-lethal concentration of Au1 or auranofin (2.5, 10, and 15 μM). After static incubation at 37°C for 48 h, weakly adherent planktonic cells were removed from the microtiter plate by washing with phosphate buffered saline (PBS) for three times gently. The adherent biofilms were dried and stained with 0.1% (w/v) crystal violet for 15 min. Excess dye was removed by rinsing the plate three times with PBS. Crystal violet was solubilized from the stained biofilms by adding 30% acetic acid and the biofilms were quantified by measuring the 595 nm absorbance. Each experiment was performed in triplicates.

P. aeruginosa = assay: Time-course of bacterial membrane permeation, propidium iodide microplate; format: cell-based, Pseudomonas aeruginosa; conditions: 50 μM; 37°C
Experimental: Overnight P. aeruginosa culture was diluted 1:100 with fresh M9 medium and grown to early-mid exponential phase (OD600 = 0.4–0.6). The culture was then diluted 1:10 into PBS and treated with the 50 μM concentration of Au1 or auranofin for 30 min. Then the bacteria were incubated with propidium iodide (PI), a dye that is excluded from cells with impermeable membrane. The CytoFLEX flow cytometry (Beckman Coulter) was used to measure the bacterial fluorescent intensities and the data was analyzed using CytExpert 2.4 software. For the time-course detection of the bacterial permeability induced by Au1 or auranofin, P. aeruginosa in early-mid exponential phase (OD600 = 0.2) was incubated with PI dye on a 96-well plate. Au1 or auranofin was added to a final concentration of 50 μM. The fluorescence signal (561 nm excitation, 590 nm emission) and OD600 value were recorded on Cytation5 microplate reader. Each experiment was performed in triplicates.

P. aeruginosa PAO1 = assay: Mouse skin wound infection model; format: in vivo
Experimental: Six-week-old female BALB/c mice were used for animal experiments to evaluate the healing effect of infected wounds in vivo. Briefly, mouse backs were cut to generate a circular wound (diameter 0.6 cm) with a hole punch and the wound was infiltrated using a medical cotton swab with P. aureginosa (overnight culture, OD600 = 0.3). The mice were randomly divided into three groups, including PBS, auranofin, and Au-1 groups (n = 5 in each group). The drugs were dissolved in DMSO and diluted with glycerol to a final concentration of 50 μM. After the bacterial fluid was dry, about 20 μL of the drug was added to the wound. Body weights and wound photography was recorded on days 0, 1, 3, 5, and 8. And on the 8th day, the mice were euthanized by chloral hydrate, the infectious tissues in all groups were collected and cultured into the LB plate for colony counting. The skin tissues were also fixed by paraformaldehyde solution (4%) for H&E, Gram, and Masson’s trichrome staining.
The above results promoted us to further investigate whether the Au1 compound was also efficacious in an in vivo animal infection model. To this end, we used a mouse wound infection model to assess the anti-P. aeruginosa efficacy of Au1 as described previously ([Liao et al., 2017b]). In brief, a circular wound with a diameter of 6 mm was created on the flank of mice, and approximately 5 × 10^8 CFU of P. aeruginosa PAO1 were dipped onto the wound by medical cotton swab to induce infection. Treatment is administered on the 1st day with auranofin or Au1 compound (50 μM, 20 μL) was applied to the wounds. The wound sizes and mice weights were recorded each day. On the 8th day, the infection sites were excised and part of the tissues was fixed in 4% paraformaldehyde and embedded in paraffin. Four-micrometer sections were cut, stained with Gram, H&E, and Masson’s trichrome stain. The remained tissues were homogenized and serially diluted for CFU quantification (Figure 6A).

NHC^Me-Au-Cl [Au1]
pyocyanin secretion (pyocyanin): almost completely inhibited | decrease of LasA protease secretion (LasA protease): 54% | decrease of elastase secretion (LasB elastase): 38% | synthesis of rhamnolipid (rhamnolipid): significantly suppress | lowest concentration sufficient to inhibit biofilm formation (P. aeruginosa biofilm): 2.5 µM | time to initiation of bacterial membrane rupture (P. aeruginosa): 1.5 h | state of infected wound (P. aeruginosa PAO1; 50 μM, 20 μL on wound, 8th day): almost completely recovered | toxicity to the mice (mice weights) (P. aeruginosa PAO1; 50 μM, 20 μL on wound, 8 days): no significant toxicity | wound healing rate (P. aeruginosa PAO1; 50 μM, 20 μL on wound, vs auranofin-treated or control group): much faster | bacteria in wound tissue (Gram staining) (P. aeruginosa PAO1; 8th day): no bacteria was observed | reduction of live bacteria in the infection sites (P. aeruginosa PAO1; 8th day, CFU, compared to control group): 90%
